From patent US20260021051A1, “PHARMACEUTICAL FORMULATIONS” (VIVUS LLC, priority 2015, published 2026)
Read-outs that look alike come from different tables or passages of the source.

How the values were obtained:
[1] = Solubility of tacrolimus in vehicles (shaken, filtered, HPLC); type: physicochemical
Protocol: The solubility of tacrolimus was obtained in Maisine® 35-1, sesame oil, Miglyol® 812, Caspmul MCM EP, Labrafil M 2125 CS, peceol, Capryol 90, Lauroglycol FCC, Span 80, caprylic acid, Transcutol HP, Tween 80 (polysorbate 80), Kolliphor EL (Cremophor EL), labrasol, Vitamin E TPGS, PEG 400, propylene glycol, ethanol, Phosal 50 PG, triethylcitrate, and PEG 3350. In general, tacrolimus (˜15 mg) was added to approximately 250 mg of the vehicles. After the first addition of the API, the mixtures were shaken in a temperature-controlled vortex mixer for 24 hours at 25° C. (50° C. for Vitamin E TPGS and 60° C. for PEG 3350) then examined for solid residues. If no residue was observed, further addition of API was performed until the total API added was ˜55 mg. After the final addition, samples were further shaken at temperature for at least 24 h. After the incubation, each sample was examined visually for solid residues. Suspensions were filtered using a centrifuge tube with 0.45 μm PVDF membrane filter (Millipore Durapore®). The thick filtrate was weighed in to a 5-mL volumetric flask and diluted to mark with the HPLC diluent. Biphasic mixtures were vialed, spun on a centrifuge, and the clear solution was separated from the oily phase. All samples were prepared protected from light.

[2] = cited from earlier work
[3] = cited from earlier work; remark: listed apart in the source

With `C=CC[C@@H]1/C=C(\C)C[C@H](C)C[C@H](OC)[C@H]2O[C@@](O)(C(=O)C(=O)N3CCCC[C@H]3C(=O)O[C@H](/C(C)=C/[C@@H]3CC[C@@H](O)[C@H](OC)C3)[C@H](C)[C@@H](O)CC1=O)[C@H](C)C[C@@H]2OC` (relative stereo) [Tacrolimus, [3S-[3R*[E(1S*,3S*,4S*)], 4S*,5R*,8S*,9E,12R*,14R*,15S*,16R*,18S*, 19S*,26-aR*]]-5,6,8,11,12,13,14,15,16,17,18,19,24,25,26a-hexadecahydro-5,19-dihydroxy-3-[2-(4-hydroxy-3-methoxycyclohexyl)-1-methylethenyl]-14,16-dimethoxy-4,10,12,18-tetramethyl-8-(2-propenyl)-15,19-epoxy-3H-pyrido [2,1-c][1,4]oxazacyclotricosine-1,7,20,21 (4H,23H)-tetrone, monohydrate] the solubility ([1]; in Capryol 90, 25° C.) was > 56 mg of API per gram of solvent, the solubility ([1]; in Caspmul MCM EP, 25° C.) was > 56 mg of API per gram of solvent and the solubility ([1]; in PEG 400, 25° C.) was > 56 mg of API per gram of solvent. The solubility ([1]; in PEG 3350, 60° C.) was > 56 mg of API per gram of solvent, the solubility ([1]; in Phosal 50 PG, 25° C.) was > 56 mg of API per gram of solvent and the solubility ([1]; in Vitamin E TPGS, 50° C.) was > 56 mg of API per gram of solvent. For the same compound, the solubility ([1]; in caprylic acid, 25° C.) was > 56 mg of API per gram of solvent, the solubility ([1]; in ethanol, 25° C.) was > 56 mg of API per gram of solvent and the solubility ([1]; in labrasol, 25° C.) was > 56 mg of API per gram of solvent. For the same compound, the solubility ([1]; in propylene glycol, 25° C.) was > 56 mg of API per gram of solvent, the solubility ([1]; in triethylcitrate, 25° C.) was > 56 mg of API per gram of solvent and the solubility ([2]; in chloroform) was “very soluble”. The solubility ([2]; in ethanol) was “freely soluble”, the solubility ([2]; in methanol) was “very soluble” and the solubility ([2]; in water) was “practically insoluble”. The “time to peak concentration” value ([3]; after oral administration) was 0.5 to 4 h, the “volume of distribution (VolD) based on plasma” value ([3]; based on plasma) was 5 to 65 L/kg of body weight and the half-life for distribution ([3]; in vivo) was 54 min. For the same compound, the protein binding ([3]; in vivo) was 75 to 99%, the “whole blood concentrations relative to plasma concentrations” value ([3]; in vivo) was 12 to 67 times and the “bioavailability of the oral dosage form (range)” value ([3]; oral) was 5 to 65%. For the same compound, the “mean bioavailability of the oral dosage form” value ([3]; oral) was “about 27%”.
